Data on 3 compounds can be found in patent US6884418B1, “Use of ligand-mimicking agents and anti-neoplastic drugs in cancer therapy” (Berlex Laboratories, Inc., priority 1989, dated 2005).

Assay [1] relates to SKBR3 cells. Kind of assay: MTT assay, SKBR3 cells. The assay is classed as cell-based, human. The method, then:
The MTT assay is generally used to assess cellular viability as a function of mitochondrial activity. The assay was used to examine effects of cisplatin with and without the c-erbB-2 monoclonal antibodies and was carried out as follows:
MTT was added for 4 hours and the crystals dissolved with isopropanol/0.04N HCI/0.3% SDS.
Background: Tetrazolium assays rely on reduction of a dye to a coloured formazan, in cell work by metabolically active cells.

Assay [2] relates to SKBR3 cells. Put plainly: Soft agar clonogenic assay, SKBR3. The conditions noted are these: 10 ng/ml cisplatin alone. The format is cell-based, human. The method, then:
The effects of TAb 250 alone and in combination with cisplatin (CDDP) on growth of human tumor cells in soft agar was assessed. SKOV3 (6,000 cells per ml) or SKBR3 (12,000 cells per ml) were incubated in assay medium (DMEM:F12, University of California at San Francisco Cell Culture Facility), 10% dialyzed FBS 0.1 mM nonessential amino acids in solution obtained from Gibco, 1 mM sodium pyruvate and 10 mM HEPES) for 30 minutes at 37° C. with 1 or 10 μg/ml TAb 250. CDDP at concentrations of either 10 ng/ml for SKBR3 cells and 100 ng/ml for SKOV3 cells was then added and the incubation continued for 1.5 hours at 37° C. An equal volume of assay medium containing 0.8% Sea Plaque agarose and appropriate concentrations of TAb 250 and CDDP were combined with the cell mixture. Triplicate 1 ml aliquots were dispensed onto base layers of 0.8% agarose in assay medium containing the appropriate amounts of TAb 250, CDDP or both, in 35 mm dishes. After 14 days at 37° C./5% CO2 in a humidified chamber, viable colonies were stained for 24 hours with Nitro Blue tetrazolium dye (Sigma, 500 μg in 1 ml PBS). Stained colonies greater than 60 μ were scored positive using a FAS III Image Analysis System (Bausch and Lomb, Rochester, N.Y.). The data are expressed as a percentage of untreated control colonies formed. In control dishes, SKOV3 and SKBR3 cells formed 859+/−16 and 1107+/−72 colonies, respectively. […]

With `N.N.O=C([O-])C1(C(=O)[O-])CCC1.[Pt+2]` [carboplatin, cis-diammine-1,1-cyclobutane dicarboxylate platinum], the cell proliferation with SKBR3 cells [1] (16 μg of carboplatin alone) is reported as 63 % of control. Further, in the assay on SKBR3 cells [1] (MTT assay, carboplatin 16 μg, melphalan 20 μg), the “synergistic response of the drug combined with TAb 250” value was “synergistic effects”.
On to `N.N.[Cl][Pt][Cl]` [cisplatin, cis-diamminedichloroplatinum], for which the cell growth in the assay on SKBR3 cells [1] (1.0 μg of cisplatin alone) was 65 % of control. For the same compound, the “toxicity to the cells” value in the assay with SKBR3 cells [1] (3.0 μg of cisplatin alone) is “highly toxic”. Moreover, in the assay on SKBR3 cells [2], the “colony formation in soft agar” value is “did not inhibit colony formation”.
For the compound `N[C@@H](Cc1ccc(N(CCCl)CCCl)cc1)C(=O)O` [melphalan, 4-[bis(2-chloroethyl)amino] L-phenylalanine], the proliferation with SKBR3 cells [1] (20 μg of melphalan alone) was 70 % of control.
